From patent US5066666A, “Aminoazole derivatives and their production and use” (Sumitomo Pharmaceuticals Company, Limited, priority 1986, dated 1991)
Read-outs that look alike come from different tables or passages of the source.

Legend:
[1] = tested on: Arthus reaction; assay: Mice-Arthus Test; type: in vivo, male BABL/c mice; conditions: for minimal effective dose: Mus musculus, 3 h, orally 24 hr and 1 hr before the challenge, read-out: Minimum Effective Dose Arthus
Protocol: The activity of effect for rheumatoid arthritis may be estimated by effect for Arthus reaction. […] Two weeks later, mice were boosted by the i.v. injection of 8×10^7 SRBC and 5 day later the animals were challenged by the subcutaneous injection of 1×10^8 SRBC in 25 μl of PBS into the right hind footpad. The thickness of the SRBC-injection right hind paw and contralateral left hind paw were measured with micrometer 3 hr after the challenge. The difference between these two measurements is regarded as the oedema due to the Arthus reaction. Percentage inhibition of the reaction was determined by comparison with the positive control group. The test compounds were administered orally 24 hr and 1 hr before the challenge.

[2] = tested on: adjuvant arthritis; conditions: background statement; cited from earlier work
[3] = tested on: Arthus reaction; conditions: background statement; cited from earlier work
[4] = tested on: adjuvant arthritis; assay: Rat-Adjuvant Arthritis Test; type: in vivo, male Sprague-Dawley rats; conditions: for effect in rat adjuvant arthritis test, in words: in vivo; for minimal effective dose: Rattus norvegicus, po, orally once a day for 5 days (day 15 to 19), lowest dose with significant reduction (p<0.001) of foot volume, read-out: Minimum Effective Dose Adjuvant Arthritis
Source text: Rat adjuvant arthritis test is one of a few and most useful pharmacological model for the investigation of human […] inflammation. It is known that the effective compounds to this model system are useful for treatment of rheumatoid arthritis, such as steroids or non-steroidal anti-inflammatory drugs (Oyo Yakuri, 5, 169 (1971).
According to the method of Winter et al., Arth. Rheum., 9, 394 (1966), male Sprague-Dawley rats, 6 weeks of age, were given subplantar injection of the adjuvant consisting of 1 mg of killed Mycobacterium butyricum (Difco) and 0.2 ml of liquid paraffin. Fourteen days after, the rats with established arthritis were treated by the drug as follows: the test compound was suspended in 5% gum arabic solution and orally given once a day for 5 days, day 15 to day 19. Control rats were given gum arabic in the same way. On day 19, the volume of right foot was determined with a plethusometer. The lowest dose which gave significant reduction (p<0.001)of the foot volume from that of the control group was regarded as a minimum effective dose (MED).

[5] = biological target: T1, 5-lipoxygenase (Cavia porcellus, UniProt A0A286X958); assay: 5-Lypoxygenase Inhibitory Test; type: cell-based, Hartley guinea pigs; conditions: PMNs from guinea pigs, A23187 stimulated, [14C] arachidonic acid; Inhibition (%) classes
T1 construct: polymorphonuclear leukocytes (PMNs) from Hartley guinea pigs; endogenous in cells; host or cells: casein-elicited peritoneal polymorphonuclear leukocytes of Hartley guinea pigs (intact cells)
T1 sequence (A0A286X958 1-674): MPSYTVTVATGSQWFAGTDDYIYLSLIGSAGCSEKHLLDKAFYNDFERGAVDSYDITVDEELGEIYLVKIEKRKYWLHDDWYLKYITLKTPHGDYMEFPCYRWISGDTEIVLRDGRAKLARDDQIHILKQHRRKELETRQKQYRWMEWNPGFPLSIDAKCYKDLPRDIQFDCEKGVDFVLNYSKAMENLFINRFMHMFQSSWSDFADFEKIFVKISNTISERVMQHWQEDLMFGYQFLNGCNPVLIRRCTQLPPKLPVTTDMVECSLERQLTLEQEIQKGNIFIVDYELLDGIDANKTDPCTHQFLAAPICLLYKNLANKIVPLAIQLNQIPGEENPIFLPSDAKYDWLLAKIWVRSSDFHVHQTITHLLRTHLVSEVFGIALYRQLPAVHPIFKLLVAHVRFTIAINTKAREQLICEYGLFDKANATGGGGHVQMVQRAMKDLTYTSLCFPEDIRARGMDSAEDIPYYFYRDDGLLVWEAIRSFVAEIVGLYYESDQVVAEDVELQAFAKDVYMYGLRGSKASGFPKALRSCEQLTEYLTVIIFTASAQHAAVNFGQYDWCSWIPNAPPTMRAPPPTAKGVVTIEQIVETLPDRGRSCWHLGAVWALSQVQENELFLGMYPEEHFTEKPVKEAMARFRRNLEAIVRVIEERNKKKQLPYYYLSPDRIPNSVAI
Protocol: According to the method of Harvey et al., J. Pharmacol. Meth., 9, 147-155 (1983), polymorphonuclear leukocytes (PMNs) from Hartley guinea pigs weighting 280 to 350 g were elicited by intraperit oneal injection of 2% casein suspension (10 ml/100 g guiner pig weight), and collected 16-18 hrs later. The cells were washed with saline and finally suspended at 2.39×10^7 cells/ml in Krebs Ringer Bicarbonate buffer (KBR) pH 7.4.
935 μl of PMNs were aliquoted into 15 ml glass tubes and prewarmed to 37° C. in a shaking water bath. Drugs (10 μl of dimethylsulfoxide (DMSO)) were added 10 minutes prior to the addition of 1-^14 C-arachidonic acid (New England Neuclear Co.; 50 μl of 2 μCi/mlKBR) and calciumionophor, A23187 (Calbiochem Boehring Co.; 5 μl of 1 mg/mlDMSO). The reaction was terminated after a further 10 min by the addition of 0.2M citric acid (100 μl). Unstimulated controls were also included to determine the increased metabolism of arachidonic acid due to A23187. Samples were diluted with water (4 ml) and extracted twice with ethyl acetate (5 ml). The ethyl acetate was concentrated under a stream of nitrogen and two-thirds of the residue was applied to TLC plates. The plates were developed in toluene:dioxane:acetic acid=65:34:1.5at 10° C.
Radiochromatographic analysis of the labelled metabolites of [^14 C] arachidonic acid utilized a Berthold LB283 TLC Linear Analyzer. In samples and controls, a ratio of radioactivity of 5-HETE in metabolites to all of metabolites of [^14 C] arachidonic acid was calculated, and results were determined as percent inhibition calculated from those retios.

[6] = background statement, clinical use, cited from earlier work

Activity of Inhibition (5-lipoxygenase) [5] | SMILES | effect in adjuvant arthritis test, in words [2] | effect in Arthus reaction, in words [3] | minimal effective dose [1] | minimal effective dose [4] | further results
 | CC(C)(S)[C@@H](N)C(=O)O [D-Penicillamine] | non-effective | non-effective |  |  | effect in mice Arthus reaction test, in words ([1]; mouse, in vivo): non-effective; Adjuvant Arthritis (result in words) ([4]; at 200 mg/kg): non-effective; effect in rat adjuvant arthritis test, in words [4]: non-effective
 | CNc1nc(C(C)c2ccc(-c3ccccc3)c(F)c2)cs1 (stereo not drawn) [Example 2, 4-[1-(2-fluoro-4-biphenylyl)ethyl]-2-methylaminothiazole] |  |  | 10 mg/kg | 25 mg/kg | 
 | CC(c1ccc(-c2ccccc2)c(F)c1)c1coc(N)n1 (stereo not drawn) [Example 7, 2-Amino-4-(1-(2-fluoro-4-biphenylyl)ethyl)oxazole] |  |  | 10 mg/kg | 10 mg/kg | 
 | CC(c1cccc(C(=O)c2ccccc2)c1)c1nc(N(C)C)no1 (stereo not drawn) [Example 11, 3-dimethylamino-5-(1-(3-benzoylphenyl)ethyl)-1,2,4-oxadiazole] |  |  | 10 mg/kg | 2.5 mg/kg | 
++ (40-70%) | CC(c1ccc(-c2ccccc2)c(F)c1)c1nc(N)no1 (stereo not drawn) [Example 21, 3-amino-5-(1-(2-fluoro-4-biphenylyl)ethyl)-1,2,4-oxadiazole] |  |  | 10 mg/kg | 2.5 mg/kg | 
+++ (70%<) | CC(c1cccc(C(=O)c2ccccc2)c1)c1nc(N)no1 (stereo not drawn) [Example 22] |  |  | 50 mg/kg | 2.5 mg/kg | 
 | CC(c1ccc(-c2ccccc2)c(F)c1)c1csc(N(C)C)n1 (stereo not drawn) [Example 48, 4-(1-(2-fluoro-4-biphenylyl)ethyl)-2-dimethylaminothiazole] |  |  | 50 mg/kg | 10 mg/kg | 
+++ (70%<) | CC(c1cccc(C(=NO)c2ccccc2)c1)c1nc(N)no1 (stereo not drawn) [Example 65] |  |  |  |  | 
+++ (70%<) | CN(C)c1noc(Cc2cccc(C(=NO)c3ccccc3)c2)n1 [Example 67] |  |  | 50 mg/kg | 10 mg/kg | 
 | CC(c1cccc(C(=O)c2ccccc2)c1)c1cc(N)on1 (stereo not drawn) [Example 74] |  |  | 50 mg/kg | 2.5 mg/kg | 
 | c1ccc(CCNc2nc(-c3ccccc3)cs2)cc1 [fanetizole, 2-phenethylamino-4-phenylthiazole] | non-effective | effective |  |  | 
 | c1ccc([C@H]2CN3CCSC3=N2)cc1 [levamizole] | non-effective | effective | 50 mg/kg |  | side effects [6]: serious side effects; side effects ([6]; listed as Levamizole): many severe side-effects; Adjuvant Arthritis (result in words) ([4]; at 50 mg/kg): non-effective; effect in rat adjuvant arthritis test, in words [4]: non-effective
 | O=C(Nc1nc(-c2ccccc2)cs1)OCC(Cl)(Cl)Cl [lotifazole, 4-phenyl-2-(2',2',2'-trichloroethoxycarboxamido)thiazole] | non-effective | effective |  |  | 
